Converted amounts (≈) assume the structure as drawn.
Legend:
[1] = system: Candida albicans; assay: Antifungal activity against Candida albicans SC5314 assessed as fungal growth inhibition incubated for 48 hrs by broth microdilution method; assay type: functional
[2] = system: Candida albicans; assay: Antifungal activity against Candida albicans 21 assessed as fungal growth inhibition incubated for 48 hrs by broth microdilution method; assay type: functional
[3] = system: Candida albicans; assay: Antifungal activity against Candida albicans 22 assessed as fungal growth inhibition incubated for 48 hrs by broth microdilution method; assay type: functional
[4] = system: Nakaseomyces glabratus; assay: Antifungal activity against Candida glabrata 201 assessed as fungal growth inhibition incubated for 48 hrs by broth microdilution method; assay type: functional
[5] = system: Nakaseomyces glabratus; assay: Antifungal activity against Candida glabrata 202 assessed as fungal growth inhibition incubated for 48 hrs by broth microdilution method; assay type: functional
[6] = system: Nakaseomyces glabratus; assay: Antifungal activity against Candida glabrata 205 assessed as fungal growth inhibition incubated for 48 hrs by broth microdilution method; assay type: functional
[7] = system: Pichia kudriavzevii; assay: Antifungal activity against Candida krusei 68 assessed as fungal growth inhibition incubated for 48 hrs by broth microdilution method; assay type: functional
[8] = system: Pichia kudriavzevii; assay: Antifungal activity against Candida krusei 477 assessed as fungal growth inhibition incubated for 48 hrs by broth microdilution method; assay type: functional
[9] = system: Candida parapsilosis; assay: Antifungal activity against Candida parapsilosis 105 assessed as fungal growth inhibition incubated for 48 hrs by broth microdilution method; assay type: functional; settings: Lodderomyces parapsilosis
[10] = system: Candida parapsilosis; assay: Antifungal activity against Candida parapsilosis 107 assessed as fungal growth inhibition incubated for 48 hrs by broth microdilution method; assay type: functional; settings: Lodderomyces parapsilosis
[11] = system: Candida parapsilosis; assay: Antifungal activity against Candida parapsilosis 125 assessed as fungal growth inhibition incubated for 48 hrs by broth microdilution method; assay type: functional; settings: Lodderomyces parapsilosis
[12] = system: Candida tropicalis; assay: Antifungal activity against Candida tropicalis 176 assessed as fungal growth inhibition incubated for 48 hrs by broth microdilution method; assay type: functional
[13] = system: Candida tropicalis; assay: Antifungal activity against Candida tropicalis 184 assessed as fungal growth inhibition incubated for 48 hrs by broth microdilution method; assay type: functional
[14] = system: Cryptococcus neoformans; assay: Antifungal activity against Cryptococcus neoformans 443 assessed as fungal growth inhibition incubated for 48 hrs by broth microdilution method; assay type: functional
[15] = system: Cryptococcus neoformans; assay: Antifungal activity against Cryptococcus neoformans 444 assessed as fungal growth inhibition incubated for 48 hrs by broth microdilution method; assay type: functional
[16] = system: Cryptococcus neoformans; assay: Antifungal activity against Cryptococcus neoformans 445 assessed as fungal growth inhibition incubated for 48 hrs by broth microdilution method; assay type: functional
[17] = system: Aspergillus fumigatus; assay: Antifungal activity against Aspergillus fumigatus A assessed as fungal growth inhibition incubated for 48 hrs by broth microdilution method; assay type: functional
[18] = system: Aspergillus fumigatus; assay: Antifungal activity against Aspergillus fumigatus 7544 assessed as fungal growth inhibition incubated for 48 hrs by broth microdilution method; assay type: functional
[19] = Cytotoxicity against human Caco-2 cells assessed as cell growth inhibition incubated for 24 hrs by CCK8 assay; assay type: toxicity, cell-based
[20] = system: Candida albicans; assay: Antifungal activity against Candida albicans 25 assessed as fungal growth inhibition incubated for 48 hrs by broth microdilution method; assay type: functional
[21] = system: Candida albicans; assay: Antifungal activity against Candida albicans 337 assessed as fungal growth inhibition incubated for 48 hrs by broth microdilution method; assay type: functional
[22] = system: Candida albicans; assay: Antifungal activity against Candida albicans 338 assessed as fungal growth inhibition incubated for 48 hrs by broth microdilution method; assay type: functional
[23] = system: [Candida] auris; assay: Antifungal activity against Candida auris 276 assessed as fungal growth inhibition incubated for 48 hrs by broth microdilution method; assay type: functional; settings: Candidozyma auris
[24] = system: [Candida] auris; assay: Antifungal activity against Candida auris 277 assessed as fungal growth inhibition incubated for 48 hrs by broth microdilution method; assay type: functional; settings: Candidozyma auris
[25] = system: [Candida] auris; assay: Antifungal activity against Candida auris 278 assessed as fungal growth inhibition incubated for 48 hrs by broth microdilution method; assay type: functional; settings: Candidozyma auris
[26] = system: [Candida] auris; assay: Antifungal activity against Candida auris CBS 12372 assessed as fungal growth inhibition incubated for 48 hrs by broth microdilution method; assay type: functional; settings: Candidozyma auris
[27] = system: [Candida] auris; assay: Antifungal activity against Candida auris 888 assessed as fungal growth inhibition incubated for 48 hrs by broth microdilution method; assay type: functional; settings: Candidozyma auris
[28] = system: Nakaseomyces glabratus; assay: Antifungal activity against Candida glabrata 203 assessed as fungal growth inhibition incubated for 48 hrs by broth microdilution method; assay type: functional
[29] = system: Nakaseomyces glabratus; assay: Antifungal activity against Candida glabrata 204 assessed as fungal growth inhibition incubated for 48 hrs by broth microdilution method; assay type: functional
[30] = system: Nakaseomyces glabratus; assay: Antifungal activity against Candida glabrata 222 assessed as fungal growth inhibition incubated for 48 hrs by broth microdilution method; assay type: functional
[31] = system: Pichia kudriavzevii; assay: Antifungal activity against Candida krusei 471 assessed as fungal growth inhibition incubated for 48 hrs by broth microdilution method; assay type: functional
[32] = system: Pichia kudriavzevii; assay: Antifungal activity against Candida krusei 474 assessed as fungal growth inhibition incubated for 48 hrs by broth microdilution method; assay type: functional
[33] = system: Candida parapsilosis; assay: Antifungal activity against Candida parapsilosis 104 assessed as fungal growth inhibition incubated for 48 hrs by broth microdilution method; assay type: functional; settings: Lodderomyces parapsilosis
[34] = system: Candida parapsilosis; assay: Antifungal activity against Candida parapsilosis ATCC22019 assessed as fungal growth inhibition incubated for 48 hrs by broth microdilution method; assay type: functional; settings: Lodderomyces parapsilosis
[35] = system: Candida parapsilosis; assay: Antifungal activity against Candida parapsilosis 106 assessed as fungal growth inhibition incubated for 48 hrs by broth microdilution method; assay type: functional; settings: Lodderomyces parapsilosis
[36] = system: Candida tropicalis; assay: Antifungal activity against Candida tropicalis 172 assessed as fungal growth inhibition incubated for 48 hrs by broth microdilution method; assay type: functional
[37] = system: Candida tropicalis; assay: Antifungal activity against Candida tropicalis 177 assessed as fungal growth inhibition incubated for 48 hrs by broth microdilution method; assay type: functional
[38] = system: Candida tropicalis; assay: Antifungal activity against Candida tropicalis 182 assessed as fungal growth inhibition incubated for 48 hrs by broth microdilution method; assay type: functional
[39] = system: Cryptococcus neoformans; assay: Antifungal activity against Cryptococcus neoformans H99 assessed as fungal growth inhibition incubated for 48 hrs by broth microdilution method; assay type: functional
[40] = system: Cryptococcus neoformans; assay: Antifungal activity against Cryptococcus neoformans 56992 assessed as fungal growth inhibition incubated for 48 hrs by broth microdilution method; assay type: functional
[41] = system: Cryptococcus neoformans; assay: Antifungal activity against Cryptococcus neoformans HN1 assessed as fungal growth inhibition incubated for 48 hrs by broth microdilution method; assay type: functional
[42] = system: Cryptococcus neoformans; assay: Antifungal activity against Cryptococcus neoformans HN2 assessed as fungal growth inhibition incubated for 48 hrs by broth microdilution method; assay type: functional
[43] = system: Cryptococcus neoformans; assay: Antifungal activity against Cryptococcus neoformans HN2-40 assessed as fungal growth inhibition incubated for 48 hrs by broth microdilution method; assay type: functional
[44] = system: Cryptococcus neoformans; assay: Antifungal activity against Cryptococcus neoformans HN15 assessed as fungal growth inhibition incubated for 48 hrs by broth microdilution method; assay type: functional
[45] = system: Cryptococcus neoformans; assay: Antifungal activity against Cryptococcus neoformans HN17 assessed as fungal growth inhibition incubated for 48 hrs by broth microdilution method; assay type: functional
[46] = system: Cryptococcus neoformans; assay: Antifungal activity against Cryptococcus neoformans HN19 assessed as fungal growth inhibition incubated for 48 hrs by broth microdilution method; assay type: functional
[47] = system: Cryptococcus neoformans; assay: Antifungal activity against Cryptococcus neoformans HN20 assessed as fungal growth inhibition incubated for 48 hrs by broth microdilution method; assay type: functional
[48] = system: Cryptococcus neoformans; assay: Antifungal activity against Cryptococcus neoformans BJ3 assessed as fungal growth inhibition incubated for 48 hrs by broth microdilution method; assay type: functional
[49] = Antifungal activity against Cryptococcus gattii WM178 assessed as fungal growth inhibition incubated for 48 hrs by broth microdilution method; assay type: functional, Cryptococcus gattii VGI
[50] = Antifungal activity against Cryptococcus gattii WM179 assessed as fungal growth inhibition incubated for 48 hrs by broth microdilution method; assay type: functional, Cryptococcus gattii VGI
[51] = Antifungal activity against Cryptococcus gattii E566 assessed as fungal growth inhibition incubated for 48 hrs by broth microdilution method; assay type: functional, Cryptococcus gattii VGI
[52] = Antifungal activity against Cryptococcus gattii SCZ20024 assessed as fungal growth inhibition incubated for 48 hrs by broth microdilution method; assay type: functional, Cryptococcus gattii VGI
[53] = Antifungal activity against Cryptococcus gattii SCZ20031 assessed as fungal growth inhibition incubated for 48 hrs by broth microdilution method; assay type: functional, Cryptococcus gattii VGI

SMILES: CCN(CC)c1ccc(C(NC(=O)C(C)C)c2ccc3cccnc3c2O)cc1 (stereo not drawn)
- MIC [1]: 0.063 µg/mL (≈ 0.161 µM)
- MIC [2]: ≤ 0.125 µg/mL
- MIC [3]: 0.063 µg/mL (≈ 0.161 µM)
- MIC [4]: 0.032 µg/mL (≈ 0.0817 µM)
- MIC [5]: 0.032 µg/mL (≈ 0.0817 µM)
- MIC [6]: 0.125 µg/mL (≈ 0.319 µM)
- MIC [7]: 0.032 µg/mL (≈ 0.0817 µM)
- MIC [8]: 0.125 µg/mL (≈ 0.319 µM)
- MIC [9]: 0.125 µg/mL (≈ 0.319 µM)
- MIC [10]: 0.125 µg/mL (≈ 0.319 µM)
- MIC [11]: 0.125 µg/mL (≈ 0.319 µM)
- MIC [12]: 0.016 µg/mL (≈ 0.0409 µM)
- MIC [13]: 0.125 µg/mL (≈ 0.319 µM)
- MIC [14]: 0.016 µg/mL (≈ 0.0409 µM)
- MIC [15]: 0.016 µg/mL (≈ 0.0409 µM)
- MIC [16]: 0.016 µg/mL (≈ 0.0409 µM)
- MIC [17]: 0.5 µg/mL (≈ 1.28 µM)
- MIC [18]: 1 µg/mL (≈ 2.55 µM)
- IC50 at 24 h [19]: 72.6 µg/mL (≈ 185 µM)
- MIC [20]: 0.063 µg/mL (≈ 0.161 µM)
- MIC [21]: 0.032 µg/mL (≈ 0.0817 µM)
- MIC [22]: 0.063 µg/mL (≈ 0.161 µM)
- MIC [23]: 0.063 µg/mL (≈ 0.161 µM)
- MIC [24]: 0.063 µg/mL (≈ 0.161 µM)
- MIC [25]: 0.125 µg/mL (≈ 0.319 µM)
- MIC [26]: 0.063 µg/mL (≈ 0.161 µM)
- MIC [27]: 0.25 µg/mL (≈ 0.639 µM)
- MIC [28]: 0.016 µg/mL (≈ 0.0409 µM)
- MIC [29]: 0.016 µg/mL (≈ 0.0409 µM)
- MIC [30]: 0.125 µg/mL (≈ 0.319 µM)
- MIC [31]: 0.032 µg/mL (≈ 0.0817 µM)
- MIC [32]: 0.125 µg/mL (≈ 0.319 µM)
- MIC [33]: 0.016 µg/mL (≈ 0.0409 µM)
- MIC [34]: 0.125 µg/mL (≈ 0.319 µM)
- MIC [35]: 0.063 µg/mL (≈ 0.161 µM)
- MIC [36]: 0.063 µg/mL (≈ 0.161 µM)
- MIC [37]: 0.125 µg/mL (≈ 0.319 µM)
- MIC [38]: 0.125 µg/mL (≈ 0.319 µM)
- MIC [39]: 0.125 µg/mL (≈ 0.319 µM)
- MIC [40]: 0.032 µg/mL (≈ 0.0817 µM)
- MIC [41]: 0.063 µg/mL (≈ 0.161 µM)
- MIC [42]: 0.063 µg/mL (≈ 0.161 µM)
- MIC [43]: < 0.016 µg/mL
- MIC [44]: 0.063 µg/mL (≈ 0.161 µM)
- MIC [45]: 0.063 µg/mL (≈ 0.161 µM)
- MIC [46]: 0.063 µg/mL (≈ 0.161 µM)
- MIC [47]: 0.016 µg/mL (≈ 0.0409 µM)
- MIC [48]: 0.063 µg/mL (≈ 0.161 µM)
- MIC [49]: 0.031 µg/mL (≈ 0.0792 µM)
- MIC [50]: 0.031 µg/mL (≈ 0.0792 µM)
- MIC [51]: 0.031 µg/mL (≈ 0.0792 µM)
- MIC [52]: 0.031 µg/mL (≈ 0.0792 µM)
- MIC [53]: 0.031 µg/mL (≈ 0.0792 µM)

— ChEMBL document CHEMBL5375952, “Discovery of Novel 8-Hydroxyquinoline Derivatives with Potent In Vitro and In Vivo Antifungal Activity” (J Med Chem, 2023)
